“Also recorded” adds a separate entry of the source.

In experiment [1] the test system is tonic-extension (maximal electroshock) seizures. As to the kind of experiment: Maximal electroshock seizure (MES) test. Format: in vivo, mouse. As to conditions: 4 mg/kg i.p., tested one hour later.
Excerpt: Abolition of the hindleg tonic extensor component of the seizure is used as the endpoint.
The subject of a further experiment is 6 Hz limbic seizures. Briefly: 6 Hz limbic (psychomotor) seizure test. The experiment is classed as in vivo, mouse. An excerpt:
Mice not displaying limbic seizures were considered protected.
As mentioned above, the 6 Hz seizure becomes more resistant to block by antiepileptic drugs as the current is increased from 22 mA to 44 mA.

A further experiment relates to mechanical allodynia. As to the kind of experiment: Sciatic nerve ligation model of chronic pain, mechanical allodynia (Von Frey). Format: in vivo, rat. The settings on record: 2 mg/kg i.p. The procedure: Just prior to surgery, rats are treated subcutaneously with 0.1 to 0.5 mg/kg of the long acting opiate buprenorphine. Rats are then anesthetized with pentobarbital and the depth of anesthesia monitored by their response to a tail pinch and observation of the depth of respiration. Sterile technique was used throughout the surgery.
The upper thigh of each rat was shaved and wiped off with ethanol and betadine. A small incision was made in the skin and through the underlying muscle of the upper thigh until the sciatic nerve was exposed. The nerve was then separated from the surrounding connective tissue and slightly elevated by a pair of fine, curved forceps. Approximately ⅓ to ½ of the nerve was then tied off by passing a needle and nylon suture (7.0) through the nerve. […] Rats were closely monitored daily for the development of infection or untoward effects of the surgery.
After an appropriate time for recovery (e.g., 7-14 days) the animals were tested for the development of mechanical allodynia (pain response to a non-noxious stimulus). […] After a 30-60 minute acclimation period, a baseline mechanical sensitivity was determined. […] This procedure was repeated until a 50% threshold for withdrawal could be determined.

The test system of experiment [2] is formalin-induced paw licking. Briefly: Mouse formalin test of inflammatory pain. The experiment is classed as in vivo. The protocol:
An injection of 0.5% formalin is made into the planter region of a mouse right hind paw. This elicits a distinct biphasic behavioral profile characterized by the mouse licking the affected paw. Immediately following the injection the mouse licks the paw for about 10 minutes. This is phase 1 (acute) and is followed by a brief latent period where there is little behavioral activity. A more prolonged period of about 20 to 30 minutes of paw licking ensues which constitutes phase 2 (inflammatory).
Prior to the administration of the active peptide, drug or vehicle each mouse undergoes a 15-minute conditioning period in one of several 6″ tall plexiglass observation tubes (4″ diameter) that are placed in front of a mirror. […] One hour after treatment, formalin was injected sub-dermally (20 μl; 27 gauge needle) into the plantar surface of the right hind foot. The bevel of the needle is placed facing down toward the skin surface. Following the injection of the formalin each animal is observed for first 2 minutes of each 5 minute epoch for a total of 45 minutes. The cumulative length of licking for each 2 minute time period was measured. An animal receiving the requisite volume of vehicle was alternated with each mouse given GAL-BBB2, Gal 1-16, or gabapentin. Animals were euthanized following the conclusion of the experiment.
Area under the curve (AUC) determination was made using the GraphPad Prism Version 3.03. Total AUC is calculated for both the test and control groups for both the acute and inflammatory phases. The AUC for individual animals for each phase is also calculated and converted to percentage of total AUC of control. The average percentages and SEM for both the drug treated and control were calculated and tested for significant difference.

Experiment [3] has as its system hippocampal kindled seizures. Briefly: Hippocampal kindled rat model of partial epilepsy. The experiment is classed as in vivo. As to conditions: i.p.; decreased from 5.

Regarding “Sar-Trp-Thr-Leu-Asn-Ser-Ala-Gly-Tyr-Leu-Leu-Gly-Pro-Lys-Lys-(Lys-palm)-Lys-NH2 [NAX 5055]”, the “activity in maximal electroshock seizure test” value in experiment [1] is “completely inactive”. Besides, the “activity in pharmaco-resistant seizure model” value in the experiment on 6 Hz limbic seizures (4 mg/kg) was “active”. Besides, in the experiment with 6 Hz limbic seizures (6 Hz (32 mA), i.c.v.), the “potency and efficacy relative to native peptide fragment” value was “more potent and efficacious than the native peptide fragment GAL(1-16)”. Besides, in the experiment with 6 Hz limbic seizures (2 h, 4 mg/kg i.p.), the “% Protection at 2 hours afforded by a dose of 4 mg/kg, i.p.” value was determined as 100%. For the same substance, in the experiment on 6 Hz limbic seizures (4 h, 4 mg/kg i.p.), the “% Protection at 4 hours afforded by a dose of 4 mg/kg, i.p.” value worked out at 0%. Moreover, in the experiment with 6 Hz limbic seizures (i.p., SAR analogs), the “ED50 in the 6 Hz limbic seizure model (in Table 14 in parentheses)” value is recorded as “(0.8 mg/kg)”. The “ED50 following i.c.v. administration” value with 6 Hz limbic seizures (intracerebroventricular, 6 Hz (32 mA)) is 0.07 nmol. Further, in the experiment with 6 Hz limbic seizures (s.c., 32 mA, 60 min, CF-1 mice), the “anticonvulsant activity following subcutaneous administration” value is “preserved; also recorded: retained”. In addition, in the experiment on mechanical allodynia (30 min to 6 h), the “threshold for mechanical allodynia” value is “time-dependent increase in the threshold for mechanical allodynia”. Moreover, the “potency relative to morphine (2 mg/kg) and gabapentin (40 mg/kg)” value with mechanical allodynia (listed as GAL-BBB2) was “equi-potent to morphine; also recorded: several fold more potent that gabapentin”. In experiment [2] (5 mg/kg), the “effect compared with gabapentin” value is given as “equivalent to a 10 mg/kg dose of gabapentin”. In addition, the “paw licking, acute and inflammatory phase” value in experiment [2] (0.52-5 mg/kg i.p., 1 h before formalin) is “dose-dependent reduction in paw licking”. For the same substance, in experiment [2] (mouse formalin assay), the “phase II response at the active dose” value was “(“flat phase II”)”. Besides, the Active at in experiment [2] (mouse formalin assay of inflammatory pain) turned out to be 5 mg/kg. Also, the “potency in mouse formalin assay” value in experiment [2] (mouse, in vivo) is “potent”. Also, in experiment [3], the seizure score is listed as 3.

For the origin of these results see patent publication US9586999B2, “Methods and compositions related to improving properties of pharmacological agents targeting nervous system” (University of Utah Research Foundation, priority 2006, dated 2017).
